# Assays:
# [1] = Solution stability of catalyst solutions on storage at 25° C.; assay type: physicochemical; conditions: Comparison 3: 40 parts catalyst in 60 parts ERL 4221E; listed as iodotoluene catalyst
# [2] = Iodonium catalyst solubility studies: time to dissolve to a clear solution at 70° C.; conditions: Comparison 2: 3 parts by weight catalyst in 100 parts PC-1000 (epoxy siloxane monomer); 2.9 wt. % solution
smiles,measurement,setting,value
"CCCCCCCCCCCCC(O)COc1ccc([I+]c2ccc(C)cc2)cc1 (centres unmarked) [PCX-2519, [4-(2-hydroxy-1-tetradecyloxy)-phenyl] 4-methylphenyliodonium hexafluorophosphate]",Solution Stability (after 14 days @ 25° C.),[1],remained stable and clear
same,Time @ 70° C. (for clear solution),[2],half and ½ hr.

# — patent publication US6632960B2, “Diaryliodonium salt catalysts made from iodotoluene and a method for preparing them” (Goldschmidt AG, priority 2002, dated 2003)
